For series [1] the following is noted: Crystal; DTA.
A short description of series [2]: Molar enthalpy of transition or fusion. The note with it: Crystal; DSC.

Numbers after ± are expanded uncertainties.

For the compound `On1nnc2ccccc21` [1-benzotriazolol], the Normal melting temperature in series [1] was 151.11 ± 1.1 °C. Besides, the “Molar enthalpy of transition or fusion” value in series [2] was found to be 4.79 ± 0.217 kcal/mol.
